According to PMC5462828 (Scientific Reports, 2017):
“Also recorded” adds a separate entry of the source. Where two headings read alike, the source gives them in different places.

What was measured:
[1] = test system: T1, RXFP1 and GαoB; assay: Real-time kinetic BRET, RXFP1-Rluc8 / GαoB; assay type: cell-based, human; conditions: HEK293T co-expressing RXFP1-Rluc8, Gγ2-Venus, Gβ1, GαoB; H2 relaxin 100 nM, ML290 100 nM or 10 μM
T1 construct: forward primer encodes M-D-S-K-G-S-S, not the native RXFP1 start (N); expressed in transfected cells; host or cells: HEK293T cells stably expressing RXFP1-Rluc8, transiently co-transfected with the G protein subunits
Procedure: HEK293 cell were seeded in 6-well plates at a density of 600,000 cells per well and transfected with constructs encoding the tagged receptors and signalling proteins. 24 h later cells were harvested in HEPES-buffered phenol red-free medium containing 5% FBS and plated out in a white 96-well plate (Nunc) that was incubated at 37 °C under 5% CO2. BRET assays were performed 48 h after transfection as described previously, [52]. Medium was replaced with phenol-red-free-DMEM supplemented with 5% FBS plus 5 μM coelenterazine h. BRET measurements were made at 37 °C using the PHERAstar Omega plate reader with Omega software (BMG LABTECH, Germany). Filtered light emissions were simultaneously measured in each of the “donor wavelength window” (475 ± 15 nm for Rluc8 with coelenterazine h) and “acceptor wavelength window” (535 ± 15 nm for Venus). Cells were assayed before and after treatment with ligands or 5% FBS phenol-red-free-DMEM medium containing 0.01% w/v BSA (vehicle). The BRET signal was calculated as previously described.

[2] = target: T2, RXFP1 (Homo sapiens, UniProt Q9HBX9); assay: cGMP accumulation in human primary vascular cells and cardiac fibroblasts; assay type: cell-based; conditions: for cGMP accumulation, maximum: DEA 10 μM, 5 min
T2 sequence (Q9HBX9 1-757): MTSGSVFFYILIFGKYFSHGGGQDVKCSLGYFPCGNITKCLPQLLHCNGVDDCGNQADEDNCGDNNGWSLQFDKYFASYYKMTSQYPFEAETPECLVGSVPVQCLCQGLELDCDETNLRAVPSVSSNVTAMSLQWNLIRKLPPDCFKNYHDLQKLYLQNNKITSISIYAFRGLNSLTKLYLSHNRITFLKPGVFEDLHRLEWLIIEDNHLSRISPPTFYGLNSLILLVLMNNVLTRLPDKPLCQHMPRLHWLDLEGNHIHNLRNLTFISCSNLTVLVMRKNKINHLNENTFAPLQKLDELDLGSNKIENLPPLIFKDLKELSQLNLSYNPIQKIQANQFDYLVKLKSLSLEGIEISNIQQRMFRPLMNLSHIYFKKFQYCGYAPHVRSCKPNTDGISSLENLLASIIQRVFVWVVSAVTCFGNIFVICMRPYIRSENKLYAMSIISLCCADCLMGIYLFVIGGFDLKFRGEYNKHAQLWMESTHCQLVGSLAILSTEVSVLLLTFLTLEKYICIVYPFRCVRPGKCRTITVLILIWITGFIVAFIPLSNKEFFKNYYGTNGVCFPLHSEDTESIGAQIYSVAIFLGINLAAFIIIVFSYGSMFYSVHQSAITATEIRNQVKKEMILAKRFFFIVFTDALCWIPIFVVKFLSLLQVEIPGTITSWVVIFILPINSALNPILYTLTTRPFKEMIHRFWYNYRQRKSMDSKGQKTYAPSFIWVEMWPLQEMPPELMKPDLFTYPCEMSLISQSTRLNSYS
Procedure: cAMP and cGMP accumulation was determined as previously described, [16]. Briefly, HEK293 cells were plated in 96-well plates (5 × 10^4 cells/well) and human primary cells were plated into 24-well plates (1 × 10^5 cells/well) and grown overnight to achieve a confluent monolayer. Prior to stimulation, HEK cells were serum-starved in DMEM containing 0.5% FBS v/v and primary cells were serum-starved in M199 medium for 4–6 hours. Where appropriate, cells were pre-incubated with mSIRK (5 μM, 30 min), mSIRK control peptide L9A (5 μM, 30 min), gallein (100 μM, 30 min), Wortmannin (100 nM, 30 min), NF023 (10 μM, 30 min) and NF449 (10 μM, 30 min). Levels of cAMP and cGMP were detected according to the manufacturer’s instructions (Perkin-Elmer, Australia).

[3] = test system: p-Smad3; assay: Smad3 phosphorylation assay in human cardiac fibroblasts; assay type: cell-based; conditions: 72 hours
Procedure: Cells were serum-starved in M199 medium for 24 hours prior sample collection. Cells were used between passages 1–4, while all experiments were performed four separate times in duplicate. Levels of p-Smad2 and p-Smad3 were detected using Sure-fire kits according to the manufacturer’s instructions (Perkin-Elmer, Australia).

[4] = test system: monkey RXFP1; set-up: method as in PMID 26866459; conditions: cited from earlier work
[5] = target: T2, RXFP1; assay: 125I-H2 relaxin association and dissociation kinetic studies in HEK-RXFP1 cells; assay type: binding; set-up: expressed in transfected cells; host or cells: HEK293T / HEK293 cells stably expressing RXFP1 (HEK-RXFP1); conditions: ML290 1 μM
Procedure: Association and dissociation kinetic studies were performed using ^125I-H2 relaxin. Briefly, HEK-RXFP1 cells were plated in 96-well plates and allowed to adhere overnight. After rinsing with PBS, the cells were incubated at the given time intervals with 100pM of ^125I-H2 relaxin to measure the association rate. The dissociation rate of ML290 was calculated using ligand competition. […] The reactions were terminated by the removal of medium and washing with ice-cold PBS. Cells were digested using 0.1 M NaOH and radioactivity counted on the γ-counter.

[6] = test system: RXFP1; assay: ERK1/2 phosphorylation (Surefire) in human primary vascular cells and cardiac fibroblasts; assay type: cell-based; conditions: HUAEC
Procedure: p-ERK1/2, p-p38MAPK and p-JNK1/2 was measured using the Surefire ERK, p38 and JNK kits (TGR BioSciences, Australia) as described previously, [16]. Briefly, HEK-RXFP1 cells were plated into 96-well plates (5 × 10^4 cells/well) and primary cells grown in 24-well plates (1 × 10^5 cells/well) overnight to achieve a confluent monolayer. Prior to stimulation, HEK293 cells were serum-starved with DMEM containing 0.5% (v/v) FBS and primary cells in M199 medium for 4–6 hours. […] Levels of p-ERK1/2, p-p38MAPK and p-JNK1/2/3 were detected as per manufacturer’s instructions (Perkin-Elmer, Australia).

[7] = test system: human RXFP1; conditions: cited from earlier work

SMILES: CC(C)Oc1ccccc1C(=O)Nc1ccccc1C(=O)Nc1cccc(S(=O)(=O)C(F)(F)F)c1 [ML290, 2-Isopropoxy-N-(2-(3-(trifluoromethylsulfonyl)phenylcarbamoyl)phenyl) benzamide]
- ligand-induced BRET, RXFP1 - GαoB interaction [1]: promoted interactions; also recorded: moved in the opposite direction to that to H2 relaxin
- cGMP accumulation, maximum ([2]; HCAEC, 30 min): 40.6 ± 5.6 % of the DEA response
- cGMP accumulation, maximum ([2]; HUASMC, 30 min): 21.0 ± 4.1 % of the DEA response
- Emax ([2]; HUVEC, read-out: cGMP accumulation efficacy (Emax), HUVEC, 30 min): 23.5%
- cGMP accumulation, maximum ([2]; HUVEC, 30 min): 23.5 ± 4.4 % of the DEA response
- cGMP accumulation, maximum ([2]; HUVSMC, 30 min): 11.0 ± 3.4 % of the DEA response
- Emax ([2]; read-out: cGMP accumulation efficacy (Emax), HCAEC, 30 min): 40.6%
- Emax ([2]; read-out: cGMP accumulation efficacy (Emax), HCF): 45.3%
- Emax ([2]; read-out: cGMP accumulation efficacy (Emax), HUASMC, 30 min): 21%
- Emax ([2]; read-out: cGMP accumulation efficacy (Emax), HUVSMC, 30 min): 11%
- effect on p-Smad3 levels ([3]; HCFs not treated with TGF-β1, H2 relaxin 0.1 μM, ML290 1 μM): neither H2 relaxin (0.1 μM) nor ML290 (1 μM) significantly affected
- p-Smad3 in TGF-β1-stimulated cells ([3]; HCFs, TGF-β1 2 ng/ml + H2 relaxin 0.1 μM or ML290 1 μM): 1.15 ± 0.05 fold/basal
- agonist action at monkey RXFP1 [4]: activates
- effect on the association rate of 125I-H2 relaxin [5]: no significant effect
- ERK1/2 phosphorylation [6]: did not cause ERK1/2 phosphorylation
- competition for 125I-H2 relaxin binding [7]: does not compete
